Where a SMILES comes first, the peptide text is derived from it.
Columns and labels:
[1] = Motilin immunoreactivity concentration in plasma, half-life after intravenous administration (Example 8); conditions: SD, rat, in vivo, 10 nmol/kg
Method in brief: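 Male SD rats (7 weeks, n=3/group) received human motilin or derivative at 10 nmol/kg i.v. via tail vein; arterial blood was sampled up to 60 min, with EDTA and aprotinin added. Plasma motilin immunoreactivity was measured by competitive RIA using a rabbit polyclonal antibody against native motilin residues 1–12 and ^125I-[Tyr^7] human motilin tracer.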

[2] = Motilin immunoreactivity concentration in plasma, half-life after intravenous administration (Example 6); assay type: in vivo, rat; conditions: for half-life: SD, rat, plasma, 10 nmol/kg, male rats, N = 3, read-out: T½ Mean Value; for disappearance half-time extending action in vivo compared with native motilin: rats
Description: The experiment was carried out using rats into which polyethylene tube (PE-50 manufactured by Clay Adams) was previously inserted into thigh artery under an anesthetized condition with Nembutal. As to a test system, male SD strain rats (Nippon Charles River) of 7 weeks age were used where one group comprised 3 rats. Human type motilin or a derivative thereof in a dose of 10 nmol/kg was administered into tail vein of the rat and the blood before the administration and until 60 minutes after the administration was collected by a polyethylene tube inserted into the thigh artery. To the collected blood were added EDTA (manufactured by Dojin Laboratories) and aprotinin (manufactured by Bayer) as a stabilizer and an anti-coagulant, respectively and the plasma was separated therefrom by centrifugal separation.

Row | SMILES | half-life ([1]; male, iv) [min] | half-life [2] [min] | disappearance half-time extending action in vivo compared with native motilin [2] | half-life ([1]; intravenous, male rats, N = 3, read-out: T½ Mean Value) [min]
1 | CC[C@H](C)[C@H](NC(=O)[C@@H]1CCCN1C(=O)[C@@H](NC(=O)[C@@H](N)Cc1ccccc1)C(C)C)C(=O)N[C@@H](Cc1ccccc1)C(=O)N[C@H](C(=O)N[C@@H](Cc1ccc(O)cc1)C(=O)NCC(=O)N[C@@H](CCC(=O)O)C(=O)N[C@@H](CC(C)C)C(=O)N[C@@H](CCC(N)=O)C(=O)N[C@@H](CCCNC(=N)N)C(=O)N[C@H](C(=O)N[C@@H](CCC(N)=O)C(=O)N[C@@H](CCC(N)=O)C(=O)N[C@@H](CCCNC(=N)N)C(=O)N[C@@H](CCCCN)C(=O)N[C@@H](CCC(=O)O)C(=O)N[C@@H](CO)C(=O)N[C@@H](CCCCN)C(=O)N[C@@H](CCCCN)C(=O)N1CCC[C@H]1C(=O)N1CCC[C@H]1C(=O)N[C@@H](C)C(=O)N[C@@H](CCCCN)C(=O)N[C@@H](CC(C)C)C(=O)N[C@@H](CCC(N)=O)C(=O)N1CCC[C@H]1C(=O)N[C@@H](CCCNC(=N)N)C(=O)O)C(C)C)[C@@H](C)O [Chimeric motilin (D)] (H-FVPIFTYGELQRVQQRKESKKPPAKLQPR-OH; N-terminus and C-terminus assumed) | 8.9 | 8.9 | – | –
2 | CC[C@H](C)[C@H](NC(=O)[C@@H]1CCCN1C(=O)[C@@H](NC(=O)[C@@H](N)Cc1ccccc1)C(C)C)C(=O)N[C@@H](Cc1ccccc1)C(=O)N[C@H](C(=O)N[C@@H](Cc1ccc(O)cc1)C(=O)NCC(=O)N[C@@H](CCC(=O)O)C(=O)N[C@@H](CC(C)C)C(=O)N[C@@H](CCC(N)=O)C(=O)N[C@@H](CCCNC(=N)N)C(=O)N[C@@H](CCCCN)C(=O)N[C@@H](CCC(=O)O)C(=O)N[C@@H](CO)C(=O)N[C@@H](CCCCN)C(=O)N[C@@H](CCCCN)C(=O)N1CCC[C@H]1C(=O)N1CCC[C@H]1C(=O)N[C@@H](C)C(=O)N[C@@H](CCCCN)C(=O)N[C@@H](CC(C)C)C(=O)N[C@@H](CCC(N)=O)C(=O)N1CCC[C@H]1C(=O)N[C@@H](CCCNC(=N)N)C(=O)O)[C@@H](C)O [Chimeric motilin (F)] (H-FVPIFTYGELQRKESKKPPAKLQPR-OH; N-terminus and C-terminus assumed) | – | 9.37 | – | –
3 | CC[C@H](C)[C@H](NC(=O)[C@@H]1CCCN1C(=O)[C@@H](NC(=O)[C@@H](N)Cc1ccccc1)C(C)C)C(=O)N[C@@H](Cc1ccccc1)C(=O)N[C@H](C(=O)N[C@@H](Cc1ccc(O)cc1)C(=O)NCC(=O)N[C@@H](CCC(=O)O)C(=O)N[C@@H](CC(C)C)C(=O)N[C@@H](CCC(N)=O)C(=O)N[C@@H](CCCNC(=N)N)C(=O)N[C@H](C(=O)N[C@@H](CCC(N)=O)C(=O)N[C@@H](CCC(N)=O)C(=O)N[C@@H](CCCNC(=N)N)C(=O)N[C@@H](CCCCN)C(=O)N[C@@H](CCC(=O)O)C(=O)N[C@@H](CO)C(=O)N[C@@H](CCCCN)C(=O)N[C@@H](CCCCN)C(=O)N1CCC[C@H]1C(=O)N1CCC[C@H]1C(=O)N[C@@H](C)C(=O)N[C@@H](CCCCN)C(=O)N[C@@H](CC(C)C)C(=O)N[C@@H](CCC(N)=O)C(=O)O)C(C)C)[C@@H](C)O [Chimeric motilin (H)] (H-FVPIFTYGELQRVQQRKESKKPPAKLQ-OH; N-terminus and C-terminus assumed) | – | 10.4 | – | –
4 | CC[C@H](C)[C@H](NC(=O)[C@@H]1CCCN1C(=O)[C@@H](NC(=O)[C@@H](N)Cc1ccccc1)C(C)C)C(=O)N[C@@H](Cc1ccccc1)C(=O)N[C@H](C(=O)N[C@@H](Cc1ccc(O)cc1)C(=O)NCC(=O)N[C@@H](CCC(=O)O)C(=O)N[C@@H](CC(C)C)C(=O)N[C@@H](CCC(N)=O)C(=O)N[C@@H](CCCNC(=N)N)C(=O)N[C@H](C(=O)N[C@@H](CCC(N)=O)C(=O)N[C@@H](CCC(N)=O)C(=O)N[C@@H](CCCNC(=N)N)C(=O)N[C@@H](CCCCN)C(=O)N[C@@H](CCC(=O)O)C(=O)N[C@@H](CO)C(=O)N[C@@H](CCCCN)C(=O)N[C@@H](CCCCN)C(=O)O)C(C)C)[C@@H](C)O [Chimeric motilin (K)] (H-FVPIFTYGELQRVQQRKESKK-OH; N-terminus and C-terminus assumed) | – | 6.14 | – | –
5 | CC[C@H](C)[C@H](NC(=O)[C@@H]1CCCN1C(=O)[C@@H](NC(=O)[C@@H](N)Cc1ccccc1)C(C)C)C(=O)N[C@@H](Cc1ccccc1)C(=O)N[C@H](C(=O)N[C@@H](Cc1ccc(O)cc1)C(=O)NCC(=O)N[C@@H](CCC(=O)O)C(=O)N[C@@H](CC(C)C)C(=O)N[C@@H](CCC(N)=O)C(=O)N[C@@H](CCCNC(=N)N)C(=O)N[C@H](C(=O)N[C@@H](CCC(N)=O)C(=O)N[C@@H](CCC(N)=O)C(=O)N[C@@H](CCCNC(=N)N)C(=O)N[C@@H](CCCCN)C(=O)N[C@@H](CCC(=O)O)C(=O)N[C@@H](CO)C(=O)O)C(C)C)[C@@H](C)O [Chimeric motilin (L), FVPIFTYGELQRVQQRKES] (H-FVPIFTYGELQRVQQRKES-OH; N-terminus and C-terminus assumed) | – | 4.89 | unable to be confirmed | –
6 | CC[C@H](C)[C@H](NC(=O)[C@@H]1CCCN1C(=O)[C@@H](NC(=O)[C@@H](N)Cc1ccccc1)C(C)C)C(=O)N[C@@H](Cc1ccccc1)C(=O)N[C@H](C(=O)N[C@@H](Cc1ccc(O)cc1)C(=O)NCC(=O)N[C@@H](CCC(=O)O)C(=O)N[C@@H](CC(C)C)C(=O)N[C@@H](CCC(N)=O)C(=O)N[C@@H](CCCNC(=N)N)C(=O)N[C@@H](CCSC)C(=O)N[C@@H](CCC(N)=O)C(=O)N[C@@H](CCC(=O)O)C(=O)N[C@@H](CCCCN)C(=O)N[C@@H](CCC(=O)O)C(=O)N[C@@H](CCCNC(=N)N)C(=O)N[C@@H](CC(N)=O)C(=O)N[C@@H](CCCCN)C(=O)NCC(=O)N[C@@H](CCC(N)=O)C(=O)O)[C@@H](C)O [Native Motilin, reference compound] | – | 3.26 | – | 3.26

Continued, in another order:

Row | half-life ([1]; male, iv) [min] | half-life [2] [min] | disappearance half-time extending action in vivo compared with native motilin [2] | SMILES | half-life ([1]; intravenous, male rats, N = 3, read-out: T½ Mean Value) [min]
7 | – | 5.25 | unable to be confirmed | CC[C@H](C)[C@H](NC(=O)[C@@H]1CCCN1C(=O)[C@@H](NC(=O)[C@@H](N)Cc1ccccc1)C(C)C)C(=O)N[C@@H](Cc1ccccc1)C(=O)N[C@H](C(=O)N[C@@H](Cc1ccc(O)cc1)C(=O)NCC(=O)N[C@@H](CCC(=O)O)C(=O)N[C@@H](CC(C)C)C(=O)N[C@@H](CCC(N)=O)C(=O)N[C@@H](CCCNC(=N)N)C(=O)N[C@@H](CO)C(=O)N[C@@H](CCCCN)C(=O)N[C@@H](CCCCN)C(=O)N1CCC[C@H]1C(=O)N1CCC[C@H]1C(=O)N[C@@H](C)C(=O)N[C@@H](CCCCN)C(=O)N[C@@H](CC(C)C)C(=O)N[C@@H](CCC(N)=O)C(=O)N1CCC[C@H]1C(=O)N[C@@H](CCCNC(=N)N)C(=O)O)[C@@H](C)O [Chimeric motilin (G)] (H-FVPIFTYGELQRSKKPPAKLQPR-OH; N-terminus and C-terminus assumed) | –
8 | – | 5.76 | – | CC[C@H](C)[C@H](NC(=O)[C@@H]1CCCN1C(=O)[C@@H](NC(=O)[C@@H](N)Cc1ccccc1)C(C)C)C(=O)N[C@@H](Cc1ccccc1)C(=O)N[C@H](C(=O)N[C@@H](Cc1ccc(O)cc1)C(=O)NCC(=O)N[C@@H](CCC(=O)O)C(=O)N[C@@H](CC(C)C)C(=O)N[C@@H](CCC(N)=O)C(=O)N[C@@H](CCCNC(=N)N)C(=O)N[C@H](C(=O)N[C@@H](CCC(N)=O)C(=O)N[C@@H](CCC(N)=O)C(=O)N[C@@H](CCCNC(=N)N)C(=O)N[C@@H](CCCCN)C(=O)N[C@@H](CCC(=O)O)C(=O)N[C@@H](CO)C(=O)N[C@@H](CCCCN)C(=O)N[C@@H](CCCCN)C(=O)N1CCC[C@H]1C(=O)N1CCC[C@H]1C(=O)N[C@@H](C)C(=O)N[C@@H](CCCCN)C(=O)O)C(C)C)[C@@H](C)O [Chimeric motilin (I)] (H-FVPIFTYGELQRVQQRKESKKPPAK-OH; N-terminus and C-terminus assumed) | –
9 | – | 6.34 | – | CC[C@H](C)[C@H](NC(=O)[C@@H]1CCCN1C(=O)[C@@H](NC(=O)[C@@H](N)Cc1ccccc1)C(C)C)C(=O)N[C@@H](Cc1ccccc1)C(=O)N[C@H](C(=O)N[C@@H](Cc1ccc(O)cc1)C(=O)NCC(=O)N[C@@H](CCC(=O)O)C(=O)N[C@@H](CC(C)C)C(=O)N[C@@H](CCC(N)=O)C(=O)N[C@@H](CCCNC(=N)N)C(=O)N[C@H](C(=O)N[C@@H](CCC(N)=O)C(=O)N[C@@H](CCC(N)=O)C(=O)N[C@@H](CCCNC(=N)N)C(=O)N[C@@H](CCCCN)C(=O)N[C@@H](CCC(=O)O)C(=O)N[C@@H](CO)C(=O)N[C@@H](CCCCN)C(=O)N[C@@H](CCCCN)C(=O)N1CCC[C@H]1C(=O)N1CCC[C@H]1C(=O)O)C(C)C)[C@@H](C)O [Chimeric motilin (J)] (H-FVPIFTYGELQRVQQRKESKKPP-OH; N-terminus and C-terminus assumed) | –
10 | – | 2.39 | unable to be confirmed | CC[C@H](C)[C@H](NC(=O)[C@@H]1CCCN1C(=O)[C@@H](NC(=O)[C@@H](N)Cc1ccccc1)C(C)C)C(=O)N[C@@H](Cc1ccccc1)C(=O)N[C@H](C(=O)N[C@@H](Cc1ccc(O)cc1)C(=O)NCC(=O)N[C@@H](CCC(=O)O)C(=O)N[C@@H](CC(C)C)C(=O)N[C@@H](CCC(N)=O)C(=O)N[C@@H](CCCNC(=N)N)C(=O)N[C@H](C(=O)N[C@@H](CCC(N)=O)C(=O)N[C@@H](CCC(N)=O)C(=O)N[C@@H](CCCNC(=N)N)C(=O)N[C@@H](CCCCN)C(=O)O)C(C)C)[C@@H](C)O [Chimeric motilin (M), FVPIFTYGELQRVQQRK] (H-FVPIFTYGELQRVQQRK-OH; N-terminus and C-terminus assumed) | –

Reference: patent US8551937B2, “Peptide having an extending action for half-life of object peptide in plasma” (priority 2008, dated 2013)
